According to PubChem BioAssay (NCI):
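The compound was tested at five concentrations on cells cultured in 96-well plates, with a 48-hour exposure period. The concentration for 50% growth inhibition is given as GI50. The concentration for full growth arrest is given as TGI.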

Tests used:
Experiment in all cases: NCI anticancer screen, dose series, 48 h
[1] = tested on: OVCAR-3 ovarian
[2] = tested on: RXF 393 renal
[3] = tested on: COLO 205 colon
[4] = tested on: 786-0 renal
[5] = tested on: MALME-3M melanoma
[6] = tested on: SK-MEL-28 melanoma
[7] = tested on: RPMI-8226 leukemia
[8] = tested on: U251 CNS
[9] = tested on: NCI/ADR-RES ovarian
[10] = tested on: HCT-15 colon
[11] = tested on: PC-3 prostate
[12] = tested on: ACHN renal
[13] = tested on: SW-620 colon
[14] = tested on: KM12 colon
[15] = tested on: NCI-H522 lung
[16] = tested on: HOP-62 NSCLC
[17] = tested on: T-47D breast
[18] = tested on: NCI-H23 lung
[19] = tested on: SK-MEL-2 melanoma
[20] = tested on: HS 578T breast
[21] = tested on: CCRF-CEM leukemia
[22] = tested on: EKVX NSCLC
[23] = tested on: SK-MEL-5 melanoma
[24] = tested on: NCI-H460 lung
[25] = tested on: UACC-62 melanoma
[26] = tested on: LOX IMVI melanoma
[27] = tested on: TK-10 renal
[28] = tested on: MDA-MB-231 breast
[29] = tested on: OVCAR-8 ovarian
[30] = tested on: SF-268 CNS
[31] = tested on: OVCAR-4 ovarian
[32] = tested on: HT29 colon
[33] = tested on: SF-295 CNS
[34] = tested on: UO-31 renal
[35] = tested on: HL-60(TB) leukemia
[36] = tested on: SNB-19 CNS
[37] = tested on: OVCAR-5 ovarian
[38] = tested on: SK-OV-3 ovarian
[39] = tested on: UACC-257 melanoma
[40] = tested on: IGROV1 ovarian
[41] = tested on: CAKI-1 renal
[42] = tested on: HOP-92 NSCLC
[43] = tested on: MCF7 breast
[44] = tested on: NCI-H226 lung
[45] = tested on: BT-549 breast
[46] = tested on: MOLT-4 leukemia
[47] = tested on: HCT-116 colon
[48] = tested on: A549 NSCLC
[49] = tested on: MDA-MB-435
[50] = tested on: M14 melanoma

Cc1cn2c(/C=N/N=C(N)N)c(-c3cccnc3)nc2s1
GI50 [1]: 10.3 µM | TGI [1]: 22.9 µM | GI50 [2]: 15.2 µM | TGI [2]: 59.1 µM | GI50 [3]: 11.6 µM | TGI [3]: 27.5 µM | GI50 [4]: 12.9 µM | TGI [4]: 26.8 µM | GI50 [5]: 8.14 µM | TGI [5]: 21.4 µM | GI50 [6]: 12.4 µM | TGI [6]: 26.3 µM | GI50 [7]: 8.91 µM | TGI [7]: 58.9 µM | GI50 [8]: 10.2 µM | TGI [8]: 23.7 µM | GI50 [9]: 2.81 µM | TGI [9]: 9.97 µM | GI50 [10]: 4.39 µM | TGI [10]: 18.1 µM | GI50 [11]: 6.95 µM | TGI [11]: 24.7 µM | GI50 [12]: 11.5 µM | TGI [12]: 25.8 µM | GI50 [13]: 11.5 µM | TGI [13]: 35.2 µM | GI50 [14]: 1.58 µM | TGI [14]: 7.21 µM | GI50 [15]: 12.1 µM | TGI [15]: 39.6 µM | GI50 [16]: 10 µM | TGI [16]: 24 µM | GI50 [17]: 1.94 µM | TGI [17]: 12.1 µM | GI50 [18]: 11.9 µM | TGI [18]: 25.2 µM | GI50 [19]: 18.7 µM | TGI [19]: 45.5 µM | GI50 [20]: 23.5 µM | TGI [20]: 47.1 µM | GI50 [21]: 4.38 µM | TGI [21]: 55 µM | GI50 [22]: 16.7 µM | TGI [22]: 36.3 µM | GI50 [23]: 2.68 µM | TGI [23]: 13.7 µM | GI50 [24]: 14.7 µM | TGI [24]: 76.6 µM | GI50 [25]: 11 µM | TGI [25]: 23.6 µM | GI50 [26]: 12.9 µM | TGI [26]: 28.7 µM | GI50 [27]: 6.85 µM | TGI [27]: 21.3 µM | GI50 [28]: 10.1 µM | TGI [28]: 24.2 µM | GI50 [29]: 27.4 µM | TGI [29]: 69 µM | GI50 [30]: 12.9 µM | TGI [30]: 35.8 µM | GI50 [31]: 15.7 µM | TGI [31]: 29.6 µM | GI50 [32]: 4.18 µM | TGI [32]: 16.1 µM | GI50 [33]: 11.9 µM | TGI [33]: 26.5 µM | GI50 [34]: 6.1 µM | TGI [34]: 21.4 µM | GI50 [35]: 3.8 µM | TGI [35]: 53.8 µM | GI50 [36]: 12.7 µM | TGI [36]: 28.9 µM | GI50 [37]: 15.2 µM | TGI [37]: 28.5 µM | GI50 [38]: 15.9 µM | TGI [38]: 33.3 µM | GI50 [39]: 16.5 µM | TGI [39]: 35.4 µM | GI50 [40]: 15.6 µM | TGI [40]: 49.8 µM | GI50 [41]: 8.07 µM | TGI [41]: 22.4 µM | GI50 [42]: 16.8 µM | TGI [42]: 33.4 µM | GI50 [43]: 20.8 µM | TGI [43]: > 100 µM | GI50 [44]: 10.1 µM | TGI [44]: 29.4 µM | GI50 [45]: 12.8 µM | TGI [45]: 30.9 µM | GI50 [46]: 3.66 µM | TGI [46]: 38.6 µM | GI50 [47]: 8.62 µM | TGI [47]: 37.8 µM | GI50 [48]: 16.3 µM | TGI [48]: 56.1 µM | GI50 [49]: 2.4 µM | TGI [49]: 7.15 µM | GI50 [50]: 10 µM | TGI [50]: 23.5 µM
